From patent US20160297830A1, “NOVEL COMPOUNDS USEFUL FOR THE TREATMENT OF BACTERIAL INFECTIOUS DISEASES” (GALAPAGOS NV, priority 2013, published 2016)
Converted amounts (≈) assume the structure as drawn. Where two headings read alike, the source gives them in different places.

Assays:
S. aureus Sa1 ATCC 13709 = assay: microbe, parasite or virus in culture; format: cell-based; conditions: Staphylococcus aureus, ATCC13709, read-out: MIC Sa1
[1] = test system: S. aureus Sa26 ATCC 25923; assay: Antibacterial activity assay (MIC), S. aureus Sa26; format: cell-based; conditions: Staphylococcus aureus
S. aureus Sa4 NCTC 6571 = assay: Antibacterial activity assay (MIC), S. aureus Sa4; format: cell-based; conditions: Staphylococcus aureus, NCTC6571, read-out: MIC Sa4
[2] = test system: S. aureus Sa2 clinical strain NCIMB 41953, MRSA; assay: microbe, parasite or virus in culture; format: cell-based; conditions: Staphylococcus aureus, read-out: MIC Sa2
[3] = test system: H. influenza Hi3 ATCC 31517; assay: organism not typed; format: cell-based; conditions: read-out: MIC Hi3
[4] = test system: H. influenza Hi10 clinical strain; assay: organism not typed; format: cell-based; conditions: read-out: MIC Hi10
[5] = test system: H. influenza Hi47 clinical strain, Ampicillin Resistant; assay: organism not typed; format: cell-based; conditions: read-out: MIC Hi47
[6] = test system: H. influenza Hi106 ATCC 51907; assay: organism not typed; format: cell-based; conditions: read-out: MIC Hi106
E. coli Ec1 ATCC 25922 = assay: Antibacterial activity assay (MIC), E. coli Ec1; format: cell-based; conditions: Escherichia coli, ATCC25922, read-out: MIC Ec1
[7] = test system: E. coli Ec50 efflux pump KO; assay: microbe, parasite or virus in culture; format: cell-based; conditions: Escherichia coli, read-out: MIC Ec50 efflux pump KO
[8] = test system: E. coli Ec113 efflux pump KO; assay: microbe, parasite or virus in culture; format: cell-based; conditions: Escherichia coli, read-out: MIC Ec113 efflux pump KO
[9] = target: DNA Polymerase IIIα (DnaE) from Staphylococcus aureus (Staphylococcus aureus, UniProt Q6GG04); assay: biochemical
DNA III Polymerase E = DNA III Polymerase E (Escherichia coli, UniProt P10443); assay: In vitro activity against DNA III Polymerase E, E. coli; format: biochemical; conditions: DNA polymerase III, E. coli; read-out: IC50 semiquantitative scoring, E. coli
Summary of the method: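 Recombinant enzyme (0.47 μg/mL diluted stock) in 20 mM Tris pH7.5, 8 mM DTT, 10 mM MgOAc, 0.05% CHAPS met compound series from 100 μM top, 1/5 steps. Activated calf thymus DNA, dNTPs and [α-33P]-dTTP substrate were added, and incubation ran 120 min at 30° C. IC50 came from filter-captured incorporated radioactivity versus controls.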

[10] = test system: Methicillin Resistant S. aureus Sa2 (MRSA); assay: animal or person; format: in vivo; conditions: lung
[11] = test system: Methicillin Resistant S. aureus Sa2 (MRSA); format: in vivo; conditions: Groin Sa, Study 2; 50 mg/kg PO BID; sample time 31 h post infection
[12] = test system: Methicillin Resistant S. aureus (MRSA); assay: Neutropenic mouse thigh infection model; conditions: Thigh Sa
[13] = Study 2, 50 mg/kg IP BID, sample time 7 h PI
[14] = Study 4, 5 mg/kg IP BID, sample time 24 h PI
[15] = Study 4, 15 mg/kg IP BID, sample time 24 h PI
[16] = Study 4, 50 mg/kg IP BID, sample time 24 h PI
[17] = Study 5, 5 mg/kg IV BID, sample time 24 h PI
[18] = Study 6, 25 mg/kg IV BID, sample time 24 h PI
[19] = Study 7, 15 mg/kg PO BID, sample time 24 h PI
[20] = Study 7, 50 mg/kg PO BID, sample time 24 h PI
[21] = Study 8, 50 mg/kg PO QD, sample time 48 h PI

DNA III Polymerase E, sequence (P10443 whole entry): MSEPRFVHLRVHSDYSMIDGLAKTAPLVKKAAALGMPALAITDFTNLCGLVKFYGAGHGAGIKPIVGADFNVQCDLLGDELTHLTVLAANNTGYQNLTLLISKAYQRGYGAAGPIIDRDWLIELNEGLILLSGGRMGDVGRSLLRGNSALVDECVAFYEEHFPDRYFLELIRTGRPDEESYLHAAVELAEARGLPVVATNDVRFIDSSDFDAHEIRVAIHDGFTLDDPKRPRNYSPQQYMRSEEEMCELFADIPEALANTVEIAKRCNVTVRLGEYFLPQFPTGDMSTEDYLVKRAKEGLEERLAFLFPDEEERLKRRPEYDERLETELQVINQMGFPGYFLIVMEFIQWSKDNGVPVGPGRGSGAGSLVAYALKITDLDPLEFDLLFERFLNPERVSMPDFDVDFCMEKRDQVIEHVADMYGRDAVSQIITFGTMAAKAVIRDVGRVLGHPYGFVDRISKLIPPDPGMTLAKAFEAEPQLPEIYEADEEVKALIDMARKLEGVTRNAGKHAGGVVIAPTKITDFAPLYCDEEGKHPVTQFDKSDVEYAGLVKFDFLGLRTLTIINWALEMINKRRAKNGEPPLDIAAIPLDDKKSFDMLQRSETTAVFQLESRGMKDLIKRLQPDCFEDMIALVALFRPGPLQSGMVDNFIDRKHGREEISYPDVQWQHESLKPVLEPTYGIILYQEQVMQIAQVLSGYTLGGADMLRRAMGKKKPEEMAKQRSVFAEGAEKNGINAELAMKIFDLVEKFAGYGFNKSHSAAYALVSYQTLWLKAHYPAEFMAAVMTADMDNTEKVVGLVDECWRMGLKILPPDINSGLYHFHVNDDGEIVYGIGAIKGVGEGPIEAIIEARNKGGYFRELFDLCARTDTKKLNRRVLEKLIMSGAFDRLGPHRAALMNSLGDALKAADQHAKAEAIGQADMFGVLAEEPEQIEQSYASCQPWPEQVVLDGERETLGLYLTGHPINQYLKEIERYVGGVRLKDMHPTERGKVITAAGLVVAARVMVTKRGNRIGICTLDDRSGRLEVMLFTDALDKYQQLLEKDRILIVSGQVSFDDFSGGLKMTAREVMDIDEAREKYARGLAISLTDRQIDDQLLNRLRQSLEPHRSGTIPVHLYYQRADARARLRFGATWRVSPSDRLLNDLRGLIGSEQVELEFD
DNA Polymerase IIIα (DnaE) from Staphylococcus aureus, sequence (Q6GG04 1-1022): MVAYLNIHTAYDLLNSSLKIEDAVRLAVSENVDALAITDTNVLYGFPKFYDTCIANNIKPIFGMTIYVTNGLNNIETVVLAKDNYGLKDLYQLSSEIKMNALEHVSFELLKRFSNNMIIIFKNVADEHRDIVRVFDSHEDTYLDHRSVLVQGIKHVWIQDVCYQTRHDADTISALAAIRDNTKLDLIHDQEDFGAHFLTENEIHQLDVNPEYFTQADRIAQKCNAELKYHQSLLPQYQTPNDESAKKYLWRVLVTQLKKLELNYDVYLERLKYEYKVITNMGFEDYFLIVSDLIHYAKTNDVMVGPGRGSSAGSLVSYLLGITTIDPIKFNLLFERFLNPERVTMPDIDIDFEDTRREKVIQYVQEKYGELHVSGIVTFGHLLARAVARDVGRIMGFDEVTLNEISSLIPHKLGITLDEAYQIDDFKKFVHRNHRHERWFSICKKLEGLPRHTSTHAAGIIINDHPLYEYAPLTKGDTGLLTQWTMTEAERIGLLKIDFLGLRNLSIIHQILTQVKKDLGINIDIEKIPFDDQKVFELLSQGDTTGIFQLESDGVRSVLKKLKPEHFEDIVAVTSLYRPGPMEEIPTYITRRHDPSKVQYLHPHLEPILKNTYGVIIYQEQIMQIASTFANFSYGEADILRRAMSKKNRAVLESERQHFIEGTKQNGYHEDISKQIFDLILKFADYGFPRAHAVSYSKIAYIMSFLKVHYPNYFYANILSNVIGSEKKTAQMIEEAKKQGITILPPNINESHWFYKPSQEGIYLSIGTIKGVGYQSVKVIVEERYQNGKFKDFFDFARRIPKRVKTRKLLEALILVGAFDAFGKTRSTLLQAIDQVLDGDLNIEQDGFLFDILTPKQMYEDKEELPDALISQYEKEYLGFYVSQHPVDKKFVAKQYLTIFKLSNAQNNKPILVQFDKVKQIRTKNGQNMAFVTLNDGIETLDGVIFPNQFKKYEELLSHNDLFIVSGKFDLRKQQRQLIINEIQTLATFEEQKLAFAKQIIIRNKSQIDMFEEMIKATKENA

With `COC[C@@H]1[C@@H](O)[C@@H]2[C@H]3C=C[C@@H]4[C@@H](COC)C(=O)O[C@H]([C@H](O)COC)[C@H](C)/C=C(\C)[C@@]24O[C@H]3[C@@H]1OC(=O)c1ccc[nH]1` [Compound 2, 8-O-1H-pyrrole-2′-carbonylbranimycin] the MIC (S. aureus Sa1 ATCC 13709) was 1 µg/mL (≈ 1.74 µM), the MIC ([1]; ATCC25923, read-out: MIC Sa26) was 1 µg/mL (≈ 1.74 µM) and the MIC ([1]; ATCC25923, read-out: MIC Sa26 + 10% SH) was 1 µg/mL. It also gave an MIC ([1]; ATCC25923, read-out: MIC Sa26 + 50% SH) of 2 µg/mL, an MIC (S. aureus Sa4 NCTC 6571) of 1 µg/mL (≈ 1.74 µM) and an MIC [2] of 0.5 µg/mL (≈ 0.869 µM). It also gave an MIC [3] of over 64 µg/mL, an MIC [4] of over 64 µg/mL and an MIC [5] of over 64 µg/mL. The MIC [6] was over 64 µg/mL, the MIC (E. coli Ec1 ATCC 25922) was over 64 µg/mL and the MIC [7] was 16 µg/mL (≈ 27.8 µM). The MIC [8] was 1 µg/mL (≈ 1.74 µM), the IC50 [9] was 1.74 to 1740 nM and the IC50 (DNA III Polymerase E) was 1740 to 17400 nM. The log reduction at 50 mg/kg ([10]; Staphylococcus aureus, MRSA, in Mus musculus, po, 24 h, read-out: Log reduction vs. untreated, Study 1, 50 mg/kg PO BID, sample 24 h post infection) was 3.36, the log reduction at 15 mg/kg ([10]; Staphylococcus aureus, MRSA, in Mus musculus, po, 24 h, read-out: Log reduction vs. untreated, Study 2, 15 mg/kg PO BID, sample 24 h post infection) was 3.91 and the log reduction at 50 mg/kg ([10]; Staphylococcus aureus, MRSA, in Mus musculus, po, 24 h, read-out: Log reduction vs. untreated, Study 2, 50 mg/kg PO BID, sample 24 h post infection) was 2.99. For the same compound, the log reduction at 6.25 mg/kg ([10]; Staphylococcus aureus, MRSA, in Mus musculus, po, 24 h, read-out: Log reduction vs. untreated, Study 4, 6.25 mg/kg PO BID, sample 24 h post infection) was 0.04, the log reduction at 12.5 mg/kg ([10]; Staphylococcus aureus, MRSA, in Mus musculus, po, 24 h, read-out: Log reduction vs. untreated, Study 4, 12.5 mg/kg PO BID, sample 24 h post infection) was 1.9 and the log reduction at 25 mg/kg ([10]; Staphylococcus aureus, MRSA, in Mus musculus, po, 24 h, read-out: Log reduction vs. untreated, Study 4, 25 mg/kg PO BID, sample 24 h post infection) was 3.48. It also gave a log reduction at 5 mg/kg ([10]; Staphylococcus aureus, MRSA, in Mus musculus, po, 72 h, read-out: Log reduction vs. untreated, Study 5, 5 mg/kg PO QD, sample 72 h post infection) of 1.57, a log reduction at 15 mg/kg ([10]; Staphylococcus aureus, MRSA, in Mus musculus, po, 72 h, read-out: Log reduction vs. untreated, Study 5, 15 mg/kg PO QD, sample 72 h post infection) of 3.62 and a log reduction at 25 mg/kg ([10]; Staphylococcus aureus, MRSA, in Mus musculus, po, 72 h, read-out: Log reduction vs. untreated, Study 6, 25 mg/kg PO QD, sample 72 h post infection) of 3.65. For the same compound, the Active ([10]; Study 1, 50 mg/kg PO BID, sample 24 h post infection) was “Y”, the Active ([10]; Study 2, 15 mg/kg PO BID, sample 24 h post infection) was “Y” and the Active ([10]; Study 2, 50 mg/kg PO BID, sample 24 h post infection) was “Y”. The Active ([10]; Study 4, 6.25 mg/kg PO BID, sample 24 h post infection) was “N”, the Active ([10]; Study 4, 12.5 mg/kg PO BID, sample 24 h post infection) was “Y” and the Active ([10]; Study 4, 25 mg/kg PO BID, sample 24 h post infection) was “Y”. The Active ([10]; Study 5, 5 mg/kg PO QD, sample 72 h post infection) was “Y”, the Active ([10]; Study 5, 15 mg/kg PO QD, sample 72 h post infection) was “Y” and the Active ([10]; Study 6, 25 mg/kg PO QD, sample 72 h post infection) was “Y”. The Active [11] was “Y”, the “Log reduction vs. untreated” value [11] was −2.52 and the Active [12, 13] was “Y”. For the same compound, the “Log reduction vs. untreated” value [12, 13] was −3.55, the Active [12, 14] was “N” and the “Log reduction vs. untreated” value [12, 14] was −1.16. For the same compound, the Active [12, 15] was “Y”, the “Log reduction vs. untreated” value [12, 15] was −3.32 and the Active [12, 16] was “Y”. For the same compound, the “Log reduction vs. untreated” value [12, 16] was −4.74, the Active [12, 17] was “N” and the “Log reduction vs. untreated” value [12, 17] was −0.13. For the same compound, the Active [12, 18] was “Y”, the “Log reduction vs. untreated” value [12, 18] was −3.92 and the Active [12, 19] was “Y”. For the same compound, the “Log reduction vs. untreated” value [12, 19] was −4.13, the Active [12, 20] was “Y” and the “Log reduction vs. untreated” value [12, 20] was −6.72. For the same compound, the Active [12, 21] was “Y” and the “Log reduction vs. untreated” value [12, 21] was −4.63.
